Assay results published in patent US20100311694A1, “Set of Geldanamycin Derivatives and Their Preparation Methods” (Institute of Medicinal Biotechnology, Chinese Academy of …, priority 2008, published 2010).

What was measured:
HBV = assay: Anti-HBV activity (HBV DNA in cell lysate, spot hybridization); type: cell-based; details: HBV DNA content of the cells, reagent solution changed every 4 days
Procedure: Test Procedure for Anti-HBV Activity
Using cell culture method, the preparation of the cells to be tested (100,000 cell's/mL) is inoculated into cell culture plate in 100 μl each well and the cells are cultured 24 h at 37° C. in 5% CO2. Tests are carried out when the cells grow into a monolayer. The target compounds as well as the controls are prepared into a series of solutions of appropriate concentrations using the culture medium and are added into 96 well culture plate respectively in 4 wells per one concentration. Then the reagent solution in each well is changed into the fresh reagent solution with the same concentration every 4 days. A cell control without reagent treatment is simultaneously is set up. The observation index is based upon the pathological changes of the cells by observing the degrees of the pathological changes of the cells under microscope every 8 days. […] Cell control without drug treatment is simultaneously is set up. The reagent solution or control medium in each well is changed into the fresh reagent solution or fresh medium respectively every 4 days. After cytolysis of the cells, HBV DNA is extracted from the cell lysis solution according to the molecular cloning technical procedure. The spots of different samples are hybridized and the A values of different hybridized spots are measured using autoradiograghic technique. The HBV DNA contents in the cell control as well as in the drug treated samples are calculated using the regression equations obtained from the standard curves to obtain half effective concentration values, the results are shown in Table 1.

HIV-1 = assay: Anti HIV-1 activity (HIV-1 P24 antigen in cell cultures); type: cell-based; details: 4 days after addition of the reagents
Procedure: Test Procedure of Anti HIV-1 Activity
8 reagent solutions of different diluted concentrations and positive control solutions are added into cell cultures in 96 well plate respectively. The sample of each diluted solutions is made duplicately and a control cell sample is also is set up. 100 μl of cell sample at a concentration of 2×10^5cells/ml is inoculated into the wells containing reagent in the plate. The cells samples are cultured in a saturated humidity culture chamber (at a 5% CO2 atmosphere) at 37° C. The pathological changes of cells are observed daily.

| Molecule | Activity of HBV inhibition IC50 (HBV) [µg/mL] | Activity of HIV inhibition IC50 (HIV-1) [µg/mL] | Activity of HBV inhibition IC50, μg/ml (HBV) |
| --- | --- | --- | --- |
| 17-(4′-((5″-(4′″-amino-2′″-oxopyrimidine-1′″-(2H)-yl)-3″,4″-dihydroxyl-tetrahydrofuran-2″yl)methoxyl)-4′-oxobutylamino)-17-de methoxy geldanamycin [GM-CY] | 0.032 | 0.02 | – |
| 17-(trans-4′-hydroxyl cyclohexylamino)-17-demethoxy geldanamycin [GM-223] | – | 0.10 | – |
| 17-diethyloxy phosphoryl methylene amino-17-demethoxy geldanamycin [GM-GP] | 3.24 | 1.36 | – |
| COC1C=CC=C(C)C(=O)NC2=CC(=O)C(NCCCn3ccnc3)=C(CC(C)CC(OC)C(O)C(C)C=C(C)C1OC(N)=O)C2=O (stereo not drawn) [GM-129, 17-(3′-(1″-imidazolyl)propylamino)-17-demethoxy geldanamycin] | 0.32 | 1.92 | – |
| CCN1CCC[C@H]1CNC1=C2C[C@H](C)C[C@H](OC)[C@H](O)[C@@H](C)/C=C(\C)[C@@H](OC(N)=O)[C@@H](OC)/C=C/C=C(\C)C(=O)NC(=CC1=O)C2=O [GM-206S, 17-(2″S-2″-(N-ethylpyrrolidinyl)-methylamino)-17-demethoxy geldanamycin] | 0.064 | 0.01 | – |
| CO[C@H]1/C=C/C=C(\C)C(=O)NC2=CC(=O)C(NCCc3ccc(S(N)(=O)=O)cc3)=C(C[C@H](C)C[C@H](OC)[C@H](O)[C@@H](C)/C=C(\C)[C@H]1OC(N)=O)C2=O [GM-208, 17-(4″-aminosulfonyl)phenylethylamino-17-demethoxy geldanamycin] | – | >0.82 | – |
| CCN1CCCC1CNC1=C2CC(C)CC(OC)C(O)C(C)C=C(C)C(OC(N)=O)C(OC)C=CC=C(C)C(=O)NC(=CC1=O)C2=O (stereo not drawn) [GM-210R, 17-(2″R-2″-(N-ethylpyrrolidinyl)-methylamino)-17-demethoxy geldanamycin] | 0.064 | 0.01 | – |
| COC1C=CC=C(C)C(=O)NC2=CC(=O)C(NCc3ccc4c(c3)OCO4)=C(CC(C)CC(OC)C(O)C(C)C=C(C)C1OC(N)=O)C2=O (stereo not drawn) [GM-217, 17-(3′,4′-(Methylenedioxy)benzylamino)-17-demethoxygeldanamycin] | – | 0.16 | – |
| CO[C@H]1/C=C/C=C(\C)C(=O)NC2=CC(=O)C(NCCc3cccs3)=C(C[C@H](C)C[C@H](OC)[C@H](O)[C@@H](C)/C=C(\C)[C@H]1OC(N)=O)C2=O [GM-221, 17-(2′-thienylethylamino)-17-demethoxy geldanamycin] | – | 0.06 | – |
| CO[C@H]1/C=C/C=C(\C)C(=O)NC2=CC(=O)C(NCCCN3CCCC3=O)=C(C[C@H](C)C[C@H](OC)[C@H](O)[C@@H](C)/C=C(\C)[C@H]1OC(N)=O)C2=O [GM-226, 17-(3′-(2″-pyrrolidonyl)propylamino)-17-demethoxy geldanamycin] | 1.6 | >0.14 | – |
| CCN1CCCC1CNC1=C2C[C@H](C)C[C@H](OC)[C@H](O)[C@@H](C)/C=C(\C)[C@@H](OC(N)=O)[C@@H](OC)/C=C/C=C(\C)C(=O)NC(=CC1=O)C2=O (stereo partly drawn) [GM-228, 17-(2″-(N-ethylpyrrolidinyl)-methylamino)-17-demethoxy geldanamycin] | – | 0.009 | 0/01 |
| COc1ccc(C=CC(=O)NCCNC2=C3C[C@H](C)C[C@H](OC)[C@H](O)[C@@H](C)/C=C(\C)[C@@H](OC(N)=O)[C@@H](OC)/C=C/C=C(\C)C(=O)NC(=CC2=O)C3=O)cc1OC [GM-413, 17-(2′-(3″,4″-dimethylcaffeoyl amido)ethylamino)-17-demethoxy geldanamycin] | 0.32 | 0.48 | – |
| COC1C=CC=C(C)C(=O)NC2=CC(=O)C(NCCNC(=O)c3cccnc3)=C(CC(C)CC(OC)C(O)C(C)C=C(C)C1OC(N)=O)C2=O (stereo not drawn) [GM-418, 17-(2′-nicotinamidoethylamino)-17-demethoxy geldanamycin] | 0.08 | 0.37 | – |
| COC1C=CC=C(C)C(=O)NC2=CC(=O)C(NC3CCN(Cc4ccccc4)CC3)=C(CC(C)CC(OC)C(O)C(C)C=C(C)C1OC(N)=O)C2=O (stereo not drawn) [GM-ABPD, 17-(4′-benzyl-4′-azacyclohexylamino)-17-demethoxy geldanamycin] | 0.32 | <0.03 | – |
| COC1C=CC=C(C)C(=O)NC2=CC(=O)C(NCCN3CCCCC3)=C(CC(C)CC(OC)C(O)C(C)C=C(C)C1OC(N)=O)C2=O (stereo not drawn) [GM-AEPD, 17-(2′-(1″-azacyclohexyl-1″-)ethylamino)-17-demethoxy geldanamycin] | 0.08 | <0.01 | – |
| COC1C=CC=C(C)C(=O)NC2=CC(=O)C(NCC3CCNCC3)=C(CC(C)CC(OC)C(O)C(C)C=C(C)C1OC(N)=O)C2=O (stereo not drawn) [GM-AMPP] | 8.0 | 0.06 | – |

| Molecule | Activity of HBV inhibition IC50 (HBV) [µg/mL] | Activity of HIV inhibition IC50 (HIV-1) [µg/mL] | Activity of HBV inhibition IC50, μg/ml (HBV) |
| --- | --- | --- | --- |
| COC1C=CC=C(C)C(=O)NC2=CC(=O)C(NCCN3CCOCC3)=C(CC(C)CC(OC)C(O)C(C)C=C(C)C1OC(N)=O)C2=O (stereo not drawn) [GM-APML, 17-(2′-(1″-oxa-4″-azacyclohexyl-1″-)ethylamino)-17-demethoxy geldanamycin] | 0.064 | <0.01 | – |
| COC1C=CC=C(C)C(=O)NC2=CC(=O)C(NCC3CCC4CC3C4(C)C)=C(CC(C)CC(OC)C(O)C(C)C=C(C)C1OC(N)=O)C2=O (stereo not drawn) [GM-MTA, 17-(myrtanylamino)-17-demethoxy geldanamycin] | 0.32 | 0.04 | – |
| COC1C=CC=C(C)C(=O)NC2=CC(=O)C(NCc3ccncc3)=C(CC(C)CC(OC)C(O)C(C)C=C(C)C1OC(N)=O)C2=O (stereo not drawn) [GM-W1] | 0.69 | 36.7 | – |
| COC1C=CC=C(C)C(=O)NC2=CC(=O)C(NCc3cncc(C)n3)=C(CC(C)CC(OC)C(O)C(C)C=C(C)C1OC(N)=O)C2=O (stereo not drawn) [GM-W2] | 8.0 | 19.6 | – |
| COC1C=CC=C(C)C(=O)NC2=CC(=O)C(NNC(=O)c3ccco3)=C(CC(C)CC(OC)C(O)C(C)C=C(C)C1OC(N)=O)C2=O (stereo not drawn) [GM-W4] | 3.2 | 0.33 | – |
| COC1C=CC=C(C)C(=O)NC2=CC(=O)C(NCCS(=O)(=O)O)=C(CC(C)CC(OC)C(O)C(C)C=C(C)C1OC(N)=O)C2=O (stereo not drawn) [GM-W5] | 6.4 | 10.26 | – |
| COC1C=CC=C(C)C(=O)NC2=CC(=O)C(NC(C)(CO)CO)=C(CC(C)CC(OC)C(O)C(C)C=C(C)C1OC(N)=O)C2=O (stereo not drawn) [GM-W6] | 1.32 | 1.47 | – |
| COC1C=CC=C(C)C(=O)NC2=CC(=O)C(NC(C)(C)CO)=C(CC(C)CC(OC)C(O)C(C)C=C(C)C1OC(N)=O)C2=O (stereo not drawn) [GM-W7] | 8.0 | 9.89 | – |
| COC1C=CC=C(C)C(=O)NC2=CC(=O)C(NCC(O)c3ccccc3)=C(CC(C)CC(OC)C(O)C(C)C=C(C)C1OC(N)=O)C2=O (stereo not drawn) [GM-W8] | 1.32 | 1.22 | – |
| COC1C=CC=C(C)C(=O)NC2=CC(=O)C(NCC(O)c3ccccc3)=C(CC(C)CC(OC)C(O)C(C)C=C(C)C1OC(N)=O)C2=O (stereo not drawn) [GM-W9] | 3.2 | 2.46 | – |
| COC1C=CC=C(C)C(=O)NC2=CC(=O)C(NCCc3ccc(N)cc3)=C(CC(C)CC(OC)C(O)C(C)C=C(C)C1OC(N)=O)C2=O (stereo not drawn) [GM-W10] | 6.4 | 40.71 | – |
| COC1C=CC=C(C)C(=O)NC2=CC(=O)C(NN3CCCCC3)=C(CC(C)CC(OC)C(O)C(C)C=C(C)C1OC(N)=O)C2=O (stereo not drawn) [GM-W11] | 8.0 | 3.87 | – |
| COC(CNC1=C2CC(C)CC(OC)C(O)C(C)C=C(C)C(OC(N)=O)C(OC)C=CC=C(C)C(=O)NC(=CC1=O)C2=O)OC (stereo not drawn) [GM-W12] | 3.2 | 0.46 | – |
| COC1C=CC=C(C)C(=O)NC2=CC(=O)C(NCC(C)(C)CO)=C(CC(C)CC(OC)C(O)C(C)C=C(C)C1OC(N)=O)C2=O (stereo not drawn) [GM-W16] | 0.064 | 0.43 | – |
| COC1C=CC=C(C)C(=O)NC2=CC(=O)C(NCCOS(=O)(=O)O)=C(CC(C)CC(OC)C(O)C(C)C=C(C)C1OC(N)=O)C2=O (stereo not drawn) [GM-W17] | 10.3 | 23.47 | – |
| COC1C=CC=C(C)C(=O)NC2=CC(=O)C(NCCc3ccccn3)=C(CC(C)CC(OC)C(O)C(C)C=C(C)C1OC(N)=O)C2=O (stereo not drawn) [GM-W18] | 50.4 | 33.41 | – |
